# Test results published in publication PMC10665444, “Unveiling the potential role of natriuretic peptide receptor a isoforms in fine-tuning the cGMP production and tissue-specific function” (Scientific Reports, 2023).
# Tests used:
# [1] = tested on: WT NPR-A co-transfected with isoform 1; assay: Whole-cell cGMP assay, DLD-1 cells co-transfected with WT NPR-A and isoform 1; format: cell-based, rat; conditions: peptide 30 min, ELISA, triplicates
# From the text: (§1) A plasmid containing rat NPR-A in a pCMV-4 backbone, gifted by Dr. Ruey-Bing Yang (Academia Sinica), was used as the NPR-A template. All three receptor isoforms plasmids were created by modifying the NPR-A sequence in the template plasmid using Site-Directed Mutagenesis (SDM) following the protocol from the Q5® Site-Directed Mutagenesis kit. All plasmids were cloned and expanded in NEB 5 α competent cells. DNA sequencing was done to confirm the success of the SDM. Primers used to clone isoform 1 are 5’—tga ccc tga gtg ggg gca acc ttg tgg c—3’ and 5’—gcc aca agg ttg ccc cca ctc agg gtc a—3’. primers used to clone isoform 2 are 5’ –gac ggg tgc ctt cag gcc ctg cca ggt tgt cct gaa cta ta—3’ and 5’ –tat agt tca gga caa cct ggc agg gcc tga agg cac ccg tc—3’. Primers used to clone isoform 3 are 5’—gtg gag gat ggc ctg gca gtg aca gag act—3’ and 5’—agt ctc tgt cac tgc cag gcc atc ctc cac—3’.
# (§2) DLD-1 cells were cultured in complete RPMI-1640 medium supplemented with 10% HI-FBS and 1% Penicillin–Streptomycin (P/S). Cells were sub-cultured every 3 days using trypsinization. […]
# (§3) Cells were transfected following the transfection protocol above and incubated for another 16 h overnight. […] Total protein content of three wells were determined using Bicinchoninic acid assay and used for normalizing across the different 24-well plates. Expression of the receptors in 3 wells were determined using Western blotting.
# NPR-A [2] = conditions: ANP compared with BNP; cited from earlier work
# From the text: They interact with three NP receptors (NPRs), namely NPR-A, NPR-B and NPR-C. Lack of NPs or their receptors have been associated with hypertension and heart failure.
# [3] = tested on: WT NPR-A co-transfected with isoform 2; assay: Whole-cell cGMP assay, DLD-1 cells co-transfected with WT NPR-A and isoform 2; format: cell-based, rat; conditions: peptide 30 min, ELISA, triplicates
# From the text: as §1
# (§4) DLD-1 cells were cultured in complete RPMI-1640 medium supplemented with 10% HI-FBS and 1% Penicillin–Streptomycin (P/S). Cells were sub-cultured every 3 days using trypsinization. DLD-1 cells (0.2 million) were seeded per well in 24-well plates to attain near 70% confluent before transfection was performed following the manufacturer’s protocol. Plasmids of interest was incubated with lipofectamine 3000 in a 1:1 ratio before the mixture was added to the cells. For single transfection, 0.8 μ g of the plasmid of interest was used. For co-transfection, the NPR-A WT plasmid was fixed at 0.8 μ g and the receptor isoforms were mixed with the WT plasmid according to their given percentages. For 1% co-transfection, 0.8 μ g of NPR-A WT plasmid was mixed with 0.00808 μ g of receptor isoforms. […]
# as §3
# NPR-A isoform 3 = assay: Whole-cell cGMP assay (competitive ELISA), DLD-1 cells transfected with NPR-A isoform 3 alone; format: cell-based, rat; conditions: IBMX 0.5 mM 30 min, then peptide 30 min
# From the text: as §1, §2, §3
# NPR-A isoform 1 = assay: Whole-cell cGMP assay (competitive ELISA), DLD-1 cells transfected with NPR-A isoform 1 alone; format: cell-based, rat; conditions: IBMX 0.5 mM 30 min, then peptide 30 min
# From the text: as §1, §2, §3
# [4] = tested on: WT NPR-A co-transfected with receptor isoforms; assay: Whole-cell cGMP assay, DLD-1 cells co-transfected with WT NPR-A and isoforms (statements over more than one isoform); format: cell-based, rat; conditions: 1% co-transfection of isoform 1 and 2
# From the text: as §1, §2, §3
# NPR-A isoform 2 = assay: Whole-cell cGMP assay (competitive ELISA), DLD-1 cells transfected with NPR-A isoform 2 alone; format: cell-based, rat; conditions: IBMX 0.5 mM 30 min, then peptide 30 min
# From the text: as §1, §2, §3
# [5] = tested on: WT NPR-A co-transfected with isoform 3; assay: Whole-cell cGMP assay, DLD-1 cells co-transfected with WT NPR-A and isoform 3; format: cell-based, rat; conditions: peptide 30 min, ELISA, triplicates
# From the text: as §1, §4, §3
# NPR-A [6] = conditions: compared with the vasodilatory analogue (DRD-ANP); cited from earlier work
# From the text: We evaluated the roles of three distinct amino acid residues found within the K-ring and the C-terminal and identified the residues that are responsible for these functions. […] The separation of diuretic and hemodynamic bioactivity in DRD-ANP and D ...
structure (smiles),measurement,setting,value
"CC[C@H](C)[C@@H]1NC(=O)[C@H](CCCNC(=N)N)NC(=O)[C@H](CC(=O)O)NC(=O)[C@H](CCSC)NC(=O)[C@H](CCCNC(=N)N)NC(=O)CNC(=O)CNC(=O)[C@H](Cc2ccccc2)NC(=O)[C@@H](NC(=O)[C@H](CO)NC(=O)[C@H](CO)NC(=O)[C@H](CCCNC(=N)N)NC(=O)[C@H](CCCNC(=N)N)NC(=O)[C@H](CC(C)C)NC(=O)[C@@H](N)CO)CSSC[C@@H](C(=O)N[C@@H](CC(N)=O)C(=O)N[C@@H](CO)C(=O)N[C@@H](Cc2ccccc2)C(=O)N[C@@H](CCCNC(=N)N)C(=O)N[C@@H](Cc2ccc(O)cc2)C(=O)O)NC(=O)CNC(=O)[C@H](CC(C)C)NC(=O)CNC(=O)[C@H](CO)NC(=O)[C@H](CCC(N)=O)NC(=O)[C@H](C)NC(=O)CNC1=O [ANP, Atrial natriuretic peptide]",decrease in cGMP production of WT NPR-A,[1]; 1% co-transfection with isoform 1,approximately 10.6%
same,decrease in cGMP production of WT NPR-A,[1]; 50% co-transfection with isoform 1,87.4%
same,binding affinity for NPR-A (in words),NPR-A [2],stronger binding affinity than BNP
same,decrease in cGMP production of WT NPR-A,[3]; 1% co-transfection with isoform 2,8.0%
same,decrease in cGMP production of WT NPR-A,[3]; 10% co-transfection with isoform 2,69.8%
same,decrease in cGMP production of WT NPR-A,[3]; 50% co-transfection with isoform 2,84.1%
same,cGMP production (result in words),NPR-A isoform 3,no cGMP production was observed
same,cGMP production (result in words),NPR-A isoform 1,no cGMP production was observed
same,reduction in cGMP production (range over isoforms 1 and 2),[4],8–10.6%
same,cGMP production (result in words),NPR-A isoform 2,no cGMP production was observed
same,decrease in cGMP production of WT NPR-A,[5]; 1% co-transfection with isoform 3,22.6%
same,decrease in cGMP production of WT NPR-A,[5]; 10% co-transfection with isoform 3,54.3%
same,decrease in cGMP production of WT NPR-A,[5]; 50% co-transfection with isoform 3,86.2%
same,rate of cGMP production (in words),NPR-A [6],produce cGMP much faster than the vasodilatory analogue (DRD-ANP)
